The test concerns Staphylococcus aureus. In words: Minimum inhibitory concentration required against Staphylococcus aureus ATCC 25923. Type of test: functional.

The structures appear in SMILES notation. Values after ≈ are worked out from the molar mass of the structure shown.

In turn, `C[N+](C)(C)Cc1cc(-c2c3nc(c(-c4ccccc4)c4ccc([nH]4)c(-c4ccccc4)c4nc(c(-c5ccccc5)c5ccc2[nH]5)C=C4)C=C3)ccc1O` registered an MIC of 60 µM. The result for `COc1ccc(-c2c3nc(c(-c4ccccc4)c4ccc([nH]4)c(-c4ccccc4)c4nc(c(-c5ccccc5)c5ccc2[nH]5)C=C4)C=C3)cc1C[N+](C)(C)C` reads 240 µM. In turn, `CN(C)Cc1cc(-c2c3nc(c(-c4ccccc4)c4ccc([nH]4)c(-c4ccccc4)c4nc(c(-c5ccccc5)c5ccc2[nH]5)C=C4)C=C3)ccc1O` yielded an MIC of 120 µM (≈ 82.5 µg/mL).

One may read the MIC as the lowest concentration that inhibits growth of the organism.

The values above are taken from ChEMBL document CHEMBL1136649, “Synthesis and antibacterial study of 10, 15, 20-triphenyl-5-(4-hydroxy-3-(trimethylammonium)methyl)phenylporphyrin as models for combination of porphyrin and alkylating agent” (2003).
